The values that follow come from publication PMC4472782, “Antibacterial Characterization of Novel Synthetic Thiazole Compounds against Methicillin-Resistant Staphylococcus pseudintermedius” (PLoS ONE, 2015).

Converted amounts (≈) assume the structure as drawn. Counter-ions that a name gives are not always drawn. Like-named read-outs stand apart in the source and are kept apart here.

A short description of series [1]: Kinetic (turbidimetric) solubility in PBS. Type of series: physicochemical. The following applies: phosphate-buffered saline; highest concentration with no precipitate. As for the experimental part:
The absorbance of the PBS-containing plate was measured prior to addition of the test agents to determine the background absorbance. After 2 hours, the presence of precipitate was detected by turbidity (absorbance at 540 nm).

For series [2], the system named is MRSP SP3. The experiment in a line: Cell membrane disruption (260/280 nm cell leakage) analysis. The format is cell-based, Staphylococcus pseudintermedius. The conditions noted are these: for absorbance (260 and 280 nm leakage) compared with untreated cells, statistical result: MRSP SP3, 30 minutes, one-way ANOVA, Tukey, P ≤ 0.05. As for the experimental part: In order to investigate the antimicrobial effect of the thiazole compounds on the integrity of the bacterial cell membrane, the release of 260 and 280 nm absorbing components was determined spectrophotometrically. […] Untreated MRSP SP3 cells or cells treated with vancomycin (inhibits cell wall synthesis in bacterial cells) served as negative controls. For the release of 260 and 280 nm absorbing material, the bacterial suspension (control) was treated with lysostaphin (in 50 mM Tris-HCl, pH 8.00) for 30 minutes. Lysostaphin was used as a positive control due to its mode of action being the disruption of the cross-linking of the pentaglycin bridges in the cell wall of staphylococci bacteria. The absorbance of cell supernatant at 260 and 280 nm was determined using a spectrophotometer (Jenway 6305). The average OD260 and OD280 values of duplicates of each treatment option were calculated and expressed as the proportion of average OD260 (or OD280) for each treatment option compared to the average OD260 (or OD280) for the positive control (lysostaphin).
(§1) All statistical analyses were performed with GraphPad Prism 6.0 (GraphPad Software, La Jolla, CA). Data generated from cytotoxicity analysis of the thiazole compounds against J774.A1 cells and the 260 and 280 nm cell leakage analysis were analyzed using one-way ANOVA, with post hoc Tukey's multiple comparisons test (P < 0.05).

Series [3] has as its system methicillin-sensitive Staphylococcus pseudintermedius. Put plainly: MIC by broth microdilution against MSSP clinical isolates. Type of series: cell-based. The conditions noted are these: nine MSSP isolates, triplicate; for MIC50: lowest concentration inhibiting growth in 50% of isolates; for MIC: read-out: MIC Range. The procedure: (§2) Fifteen isolates of S. pseudintermedius (nine MSSP and six MRSP), identified at the Indiana Animal Disease Diagnostic Laboratory from specimens collected from dogs admitted to the small animal teaching hospital at Purdue University, were included in the study. The specimens were not collected specifically for this research study but were obtained from patients admitted to the hospital for treatment. Clinical specimens were inoculated onto 5% sheep blood agar and incubated at 35°C for 18–24 hours. Standard methods including examination of colony morphology and hemolysis and biochemical tests such as tube coagulase, Voges-Proskauer (VP) and fermentation tests for maltose, trehalose and lactose, were used in addition to matrix-assisted laser desorption ionization time of flight mass spectrometry to identify isolates. Antimicrobial susceptibility was determined by broth microdilution using the SensiTitre (Thermofisher Scientific).
(§3) Bacteria were prepared in phosphate-buffered saline (PBS) until a McFarland standard of 0.5 was achieved. The solution was subsequently diluted 1:300 in Mueller-Hinton broth (MHB) to reach a starting inoculum of 1 × 10^5 colony-forming units (CFU/mL). Bacteria were then transferred to a 96-well microtiter plate. Thiazole compounds and antibiotics were added (in triplicate) to wells in the first row of the microtiter plate and then serially diluted along the vertical axis. […] The MIC was categorized as the concentration where there was no visible growth of bacteria observed.
For orientation: Dilution methods test growth across graded concentrations, often in twofold steps.

Series [4] relates to methicillin-resistant Staphylococcus pseudintermedius. The experiment in a line: MIC by broth microdilution against MRSP clinical isolates. The conditions noted are these: six MRSP isolates, triplicate; for MIC50: Staphylococcus pseudintermedius, read-out: MIC50. The format is cell-based. As for the experimental part:
as §2, §3

Series [5] has as its system methicillin-sensitive Staphylococcus pseudintermedius. The experiment in a line: MBC determination against MSSP clinical isolates. The format is cell-based. The conditions noted are these: nine MSSP isolates; for MBC: Staphylococcus pseudintermedius, lowest concentration that killed 50% of isolates, read-out: MBC50. As for the experimental part: (§4) The MBC was determined by plating 5 μL from wells on the 96-well microtiter plate (where the MIC was determined) where no growth was observed onto Tryptic soy agar (TSA) plates. […] The MBC was categorized as the concentration where ≥99% reduction in bacterial cell count was observed.

The test system of series [6] is methicillin-resistant Staphylococcus pseudintermedius. The experiment in a line: MBC determination against MRSP clinical isolates. Type of series: cell-based. The following applies: six MRSP isolates; for MBC: Staphylococcus pseudintermedius, read-out: MBC50. The procedure: as §4
Series [7] relates to MRSP SP3. The experiment in a line: Time-kill analysis against MRSP. The format is cell-based, Staphylococcus pseudintermedius. The following applies: 4 × MIC, MRSP SP3, 24 hour incubation at 37°C. The procedure: MRSP SP3 cells in late logarithmic growth phase were diluted to ~1 × 10^6 CFU/mL and exposed to concentrations equivalent to 4 × MIC (in triplicate) of thiazole compounds 1–6 and rifampicin in MHB. Samples (20 μL) were collected after 0, 2, 4, 6, 8, 10, 12, and 24 hours of incubation at 37°C and subsequently serially diluted in PBS. Bacteria were then transferred to TSA plates and incubated at 37°C for 20–24 hours before viable CFU/mL values were determined.

In series [8] the test system is murine macrophage cell line (J774.A1). Put plainly: In vitro cytotoxicity analysis (MTS assay). Type of series: cell-based. The conditions noted are these: 10 μg/mL, J774.A1, two hours. As for the experimental part: Compounds were assayed at concentrations of 5 μg/mL, 10 μg/mL, 20 μg/mL, and 40 μg/mL against a murine macrophage cell line (J774.A1) (ATCC TIB-67, American Type Culture Collection (ATCC), Manassas, VA, USA) to determine the potential toxic effect in vitro. Cells were cultured in Dulbeco’s modified Eagle’s medium (Sigma-Aldrich, St. Louis, MO, USA) with 10% fetal bovine serum (USA Scientific, Inc.) at 37°C with 5% CO2. Controls received DMSO alone at a concentration equal to that in drug-treated cell samples. The cells were incubated with the compounds in a 96-well plate at 37°C and 5.0% CO2 for two hours prior to addition of the assay reagent MTS 3-(4,5-dimethylthiazol-2-yl)-5-(3-carboxymethoxyphenyl)-2-(4-sulfophenyl)-2H-tetrazolium) (Promega, Madison, WI, USA). Absorbance readings were taken using a kinetic ELISA microplate reader (Molecular Devices, Sunnyvale, CA, USA). The quantity of viable cells after treatment with each compound was expressed as a percentage of the control, DMSO.
as §1
In general terms: Formazan colour is commonly taken as a measure of viable cells.

The subject of series [9] is MRSP SP3. Put plainly: Checkerboard assay of thiazole compounds with oxacillin. The format is cell-based, Staphylococcus pseudintermedius. The following applies: for ƩFIC: combination with oxacillin, ≤ 0.5 synergistic, > 0.5 to ≤ 4.0 indifference, > 4 antagonistic. The procedure:
The relationship between the thiazole compounds and oxacillin was assessed via a standard checkerboard assay. Bacteria (MRSP SP3) equivalent to a McFarland standard of 0.5 were prepared in PBS. The bacteria were next diluted in MHB to achieve a starting cell density of 1 × 10^5 CFU/mL. MHB was transferred to all wells of a 96-well microtiter plate. […] Oxacillin was serially diluted along the abscissa of the microtiter plate while the thiazole compound was serially diluted along the ordinate. The plate was incubated for 22–24 hours at 37°C. The MIC of the test compound in combination with oxacillin was determined as the lowest concentration of each compound/antibiotic where no visible growth of bacteria was observed. The fractional inhibitory concentration index (ƩFIC) was calculated for each combination as described previously. A synergistic relationship was classified as an FIC index less than or equal to 0.5. […]

Series [10] concerns MRSP SP3. The experiment in a line: Post-antibiotic effect against MRSP. The format is cell-based, Staphylococcus pseudintermedius. The conditions noted are these: 4 × MIC for one hour. The procedure:
A tube containing untreated bacterial cells served as a control. Afterward, the compound/antibiotic was washed out by diluting bacteria 1:1000 in MHB. Counts of CFU for all cultures were obtained after washing. Aliquots (100 μL) of bacteria were removed every hour (for 10 hours), serially diluted in PBS, and plated on TSA plates. TSA plates were incubated for 20 hours at 37°C before CFU values were determined.

On the set-up of series [11]: method as in PMID 24387054. The conditions noted are these: phosphate-buffered saline; cited from earlier work.
For series [12] the following is noted: human liver microsomes; cited from earlier work.
For series [13], the system named is MRSP SP3. Put plainly: Re-sensitization of MRSP to oxacillin, broth microdilution. Type of series: cell-based. The following applies: Staphylococcus pseudintermedius, clinical isolate identified as MRSP, read-out: MIC of oxacillin alone. As for the experimental part:
MHB was inoculated with MRSP SP3 (5×10^5 CFU/mL), as has been previously described. Aliquots (5 mL) of the bacterial suspension were divided into microcentrifuge tubes. The thiazole compounds tested (at ½ × MIC) were introduced into each tube. After sitting at room temperature for 30 minutes, 1 mL samples from each tube were transferred to a new centrifuge tube prior to addition of oxacillin (at a concentration equivalent to its MIC). Using a 96-well microtiter plate, rows 2–12 were filled with the remaining 4 mL bacterial suspension (containing the thiazole compound). Aliquots (200 μL) from tubes containing both the thiazole compound and oxacillin were transferred to row 1 of the 96-well plate. After aspirating contents in the first row 4–6 times, 100 μL was transferred from wells in row 1 to row 2. This process was repeated to dilute the remaining wells containing no antibiotic. Untreated bacteria served as a control. […] A fold reduction was calculated by comparing the MIC of the antibiotic alone compared to the MIC of the antibiotic given in combination with the thiazole compounds.

As for `COC(=O)[C@H]1[C@H]2C[C@@H]3c4[nH]c5cc(OC)ccc5c4CCN3C[C@H]2C[C@@H](OC(=O)c2cc(OC)c(OC)c(OC)c2)[C@@H]1OC` [Reserpine, reference compound], the “solubility limit” value in [1] amounted to 19.05 µg/mL (≈ 31.3 µM).
Turning to “lysostaphin: positive control; disrupts cross-linking of the pentaglycin bridges in the cell wall of staphylococci [reference compound]”, in the series on MRSP SP3 [2], the “absorbance (260 and 280 nm leakage) compared with untreated cells, statistical result” value was “significant difference”.
`CCCCc1ccc(-c2nc(C)c(/C(C)=N/NC(=N)N)s2)cc1` [Compound 1]: in series [3], the MIC50 (in general, the lowest concentration that inhibits either 50% of growth or 50% of the strains tested, depending on the study) was found to be 0.35 µg/mL (≈ 1.06 µM) and the MIC (commonly the least concentration at which growth counts as inhibited) is 0.17 to 1.38 µg/mL (≈ 0.516 to 4.19 µM). In [4], the MIC50 was found to be 0.69 µg/mL (≈ 2.09 µM) and the “MIC Range” value lay in the range of 0.35 to 1.38 µg/mL. Further, in series [5], the MBC was found to be 0.46 µg/mL (≈ 1.4 µM) and the “MBC Range” value lay within 0.17 to 2.77 µg/mL. Besides, in [6], the MBC is 0.92 µg/mL (≈ 2.79 µM) and the “MBC Range” value was in the range of 0.35 to 1.38 µg/mL. Further, the “time required to completely eliminate MRSP” value with MRSP SP3 [7] is recorded as “four hours”. Further, the “toxicity to murine macrophage cells (MTS assay)” value in series [8] is reported as “toxic”. Moreover, in the series on MRSP SP3 [9] (checkerboard assay), the relationship with oxacillin entry is listed as “synergistic”. The ƩFIC in the series on MRSP SP3 [9] is recorded as 0.19. The “Post-antibiotic Effect” value in the series with MRSP SP3 [10] is greater than 9 h. For the same compound, the solubility limit in series [11] is 20.56 µg/mL (≈ 62.4 µM). The half-life entry in series [12] is given as “under 30 minutes”.
Take `Cc1onc(-c2ccccc2)c1C(=O)N[C@@H]1C(=O)N2[C@@H]1SC(C)(C)[C@@H]2C(=O)O` [oxacillin, oxacillin sodium salt monohydrate]: in the series on MRSP SP3 [13], the MIC was 128 µg/mL.
On to `C/C(=N\NC(=N)N)c1sc(-c2ccc(-c3ccccc3)cc2)nc1C` [Compound 2], for which, in [3], the MIC50 turned out to be 0.3 µg/mL (≈ 0.858 µM) and the MIC fell in the range of 0.15 to 0.61 µg/mL (≈ 0.429 to 1.75 µM). Besides, in [4], the MIC50 was determined as 0.46 µg/mL (≈ 1.32 µM) and the “MIC Range” value was 0.15 to 0.61 µg/mL. Besides, in [5], the MBC is 0.61 µg/mL (≈ 1.75 µM) and the “MBC Range” value was in the range of 0.15 to 2.42 µg/mL. For the same compound, in series [6], the MBC is 0.61 µg/mL (≈ 1.75 µM) and the “MBC Range” value lay within 0.30 to 0.81 µg/mL. Moreover, the “time required to completely eliminate MRSP” value in the series with MRSP SP3 [7] is “eight hours”. Also, the “intracellular content (at 260 nm) released compared to cells treated with lysostaphin” value in the series with MRSP SP3 [2] (4 × MIC, 30 minutes, MRSP SP3) is reported as “Less than 20%”. Also, the “absorbance (260 and 280 nm leakage) compared with untreated cells, statistical result” value with MRSP SP3 [2] is given as “no statistical difference”. Moreover, in series [8], the “toxicity to murine macrophage cells (MTS assay)” value was “toxic”. Also, the ƩFIC in the series on MRSP SP3 [9] stood at 0.56. Further, the “Post-antibiotic Effect” value with MRSP SP3 [10] was 8 h.
